According to patent US11655256B1, “Processes for making a solid-state form of relugolix” (Johnson Matthey Public Limited Company, priority 2020, dated 2023):

Legend:
Assay type in all cases: physicochemical
[1] = Stability on prolonged drying under vacuum; conditions: about 2 days under vacuum at about 70° C.
Experimental: Form A of the DMF solvate of relugolix is stable, i.e., it is unchanged after prolonged drying (e.g., about 2 days) under vacuum at about 70° C.

[2] = Dynamic vapor sorption (DVS)
Experimental: DVS samples are analyzed using a TA Instruments Q5000SA gravimetric water sorption analyzer. The relative humidity is adjusted between about 0-95% and the weight of the sample is continuously monitored and recorded with respect to the relative humidity and time.

[3] = Stability under high humidity at ambient temperatures; conditions: about 97% humidity, over a month

## CONC(=O)Nc1ccc(-c2sc3c(c2CN(C)C)c(=O)n(-c2ccc(OC)nn2)c(=O)n3Cc2c(F)cccc2F)cc1 [Form A of the DMF solvate of relugolix, 1-[4-[1-[(2,6-difluorophenyl)-methyl]-5-[(dimethylamino)methyl]-3-(6-methoxypyridazin-3-yl)-2,4-dioxothieno-[2,3-d]pyrimidin-6-yl]phenyl]-3-methoxyurea]
[1]
  stability after prolonged drying: unchanged
[2]; at about 90% RH
  DVS loss of mass: about 1%
[3]
  stability under humidity: remains unchanged

## CONC(=O)Nc1ccc(-c2sc3c(c2CN(C)C)c(=O)n(-c2ccc(OC)nn2)c(=O)n3Cc2c(F)cccc2F)cc1 [Form T of anhydrous relugolix, 1-[4-[1-[(2,6-difluorophenyl)-methyl]-5-[(dimethylamino)methyl]-3-(6-methoxypyridazin-3-yl)-2,4-dioxothieno-[2,3-d]pyrimidin-6-yl]phenyl]-3-methoxyurea]
[2]; relative humidity (RH) levels between 0 to 90%
  DVS weight % change: about 6%

## CONC(=O)Nc1ccc(-c2sc3c(c2CN(C)C)c(=O)n(-c2ccc(OC)nn2)c(=O)n3Cc2c(F)cccc2F)cc1 [Form B of anhydrous relugolix, 1-[4-[1-[(2,6-difluorophenyl)-methyl]-5-[(dimethylamino)methyl]-3-(6-methoxypyridazin-3-yl)-2,4-dioxothieno-[2,3-d]pyrimidin-6-yl]phenyl]-3-methoxyurea]
[2]; evidenced by XRPD after DVS
  stability at various humidity levels: remains stable
[2]; relative humidity levels between about 0 to about 95%
  DVS weight loss: about 7%
